Test systems include BT-549; CCRF-CEM; DU-145; HL-60; HOP-62; HT-29; Hs-578T; LOX IMVI; MDA-MB-435; MDA-N; MOLT-4; NCI-H522; SF-268; SK-MEL-2; SK-MEL-5; SN12C; SNB-19; SR; T47D.
Assay in all cases: DTP human tumour cell line panel, 48 h

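Grown in 96-well plates, cells were treated for 48 hours with each compound at five concentrations. Insufficient inhibition: endpoint recorded as highest concentration tested. At the GI50, growth is halved.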 Active and inactive are the calls of the source. Cut-off read from the data, not from the text of the source: active = GI50 up to about 1.1 µM and inactive = higher.

Take `COc1ccc2nccc(SCC(=O)O)c2c1`: the GI50 in the assay on BT-549, in the assay on CCRF-CEM, in the assay on DU-145, in the assay on HL-60, in the assay with HOP-62 and with HT-29 was > 100 µM (inactive) each time. For the same compound, the GI50 with Hs-578T, in the assay on LOX IMVI, in the assay with MDA-MB-435, in the assay on MDA-N, in the assay with MOLT-4 and in the assay with NCI-H522 was > 100 µM (inactive) in each case. In addition, the GI50 in the assay on SF-268, with SK-MEL-2, in the assay with SK-MEL-5, in the assay on SN12C, in the assay on SNB-19 and in the assay with SR was > 100 µM (inactive) in each case. The GI50 (usually the concentration that inhibits growth by half) in the assay on T47D was > 100 µM (inactive).
As to `COC1OC(=O)C(OC)C(OC)C1OC` (stereo unspecified), the GI50 in the assay with BT-549 was 40.5 µM (inactive); with DU-145, > 100 µM (inactive); in the assay with HL-60 it was > 100 µM (inactive); in the assay with HOP-62 it was > 100 µM (inactive); in the assay on HT-29 it was > 100 µM (inactive); with Hs-578T it was > 100 µM (inactive). In addition, the GI50 with LOX IMVI, with MDA-MB-435, with MDA-N, in the assay on MOLT-4, in the assay with NCI-H522 and in the assay on SF-268 was > 100 µM (inactive) throughout. Further, the GI50 in the assay on SK-MEL-2, in the assay with SK-MEL-5, in the assay on SN12C, in the assay on SNB-19, in the assay with SR and in the assay with T47D was > 100 µM (inactive) throughout.
Take `COC(=O)C1=C(OC(=O)c2ccccc2)C(C(=O)OC)[C@@]2(O)[C@@H](C(=O)OC)[C@H](C)C[C@@H]1[C@@H]2C(=O)OC` (stereo partly specified): the GI50 was 23.7 µM (inactive) in the assay on BT-549; 8.89 µM (inactive) in the assay with CCRF-CEM; 59.3 µM (inactive) in the assay with DU-145; 20.1 µM (inactive) with HL-60; 33.1 µM (inactive) in the assay with HOP-62; 34.6 µM (inactive) in the assay on HT-29. Also, the GI50 in the assay on Hs-578T is 34.5 µM (inactive); with LOX IMVI it was 32.1 µM (inactive); in the assay on MDA-MB-435, 25.3 µM (inactive); with MDA-N, 21.4 µM (inactive); with MOLT-4, 46.1 µM (inactive); with NCI-H522 it was 13.2 µM (inactive). The GI50 in the assay with SF-268 is 47.8 µM (inactive); in the assay with SK-MEL-2 it was 58.2 µM (inactive); in the assay on SK-MEL-5, 31.9 µM (inactive); in the assay with SN12C it was 41.8 µM (inactive); in the assay with SNB-19, 74.6 µM (inactive); in the assay with SR it was 21.5 µM (inactive). Further, the GI50 in the assay with T47D was 28 µM (inactive).
Consider `O=C(NCCNCCO)N/N=C/c1ccc([N+](=O)[O-])cc1`, for which the GI50 in the assay with BT-549, in the assay on CCRF-CEM, in the assay on DU-145, in the assay with HL-60, in the assay with HOP-62 and in the assay on HT-29 was > 100 µM (inactive) throughout. Further, the GI50 in the assay with Hs-578T is 57.1 µM (inactive); with MDA-MB-435, > 100 µM (inactive); with MDA-N, 61.4 µM (inactive); in the assay on MOLT-4 it was > 100 µM (inactive); with NCI-H522, > 100 µM (inactive); in the assay with SF-268, > 100 µM (inactive). The GI50 is 49.8 µM (inactive) in the assay with SK-MEL-2; > 100 µM (inactive) with SK-MEL-5; > 100 µM (inactive) in the assay with SN12C; > 100 µM (inactive) with SNB-19; > 100 µM (inactive) with SR; > 100 µM (inactive) in the assay on T47D.
With `CC(=O)OC(=C(C#N)C#N)c1nccnc1C(C)=O`, the GI50 in the assay on BT-549 was 13.3 µM (inactive); with CCRF-CEM, 11.2 µM (inactive); with DU-145 it was > 20 µM (inactive); in the assay with HL-60 it was 7.01 µM (inactive); with HT-29 it was 4.2 µM (inactive); in the assay on Hs-578T, 4.44 µM (inactive). Besides, the GI50 with LOX IMVI is > 20 µM (inactive); with MDA-MB-435 it was > 20 µM (inactive); in the assay on MDA-N it was 6.17 µM (inactive); with MOLT-4, > 20 µM (inactive); in the assay on NCI-H522, 19.2 µM (inactive); with SF-268 it was 3.59 µM (inactive). Also, the GI50 in the assay on SK-MEL-2 was > 20 µM (inactive); with SK-MEL-5, 6.32 µM (inactive); with SN12C, > 20 µM (inactive); in the assay with SNB-19, > 20 µM (inactive); with SR, 18.5 µM (inactive); with T47D, > 20 µM (inactive).
For the compound `N=C(NCc1ccccc1)N/N=C\c1ccnc2ccccc12`, the GI50 is 4.56 µM (inactive) in the assay on BT-549; 1.87 µM (inactive) in the assay on CCRF-CEM; 16.5 µM (inactive) with DU-145; 14.3 µM (inactive) with HL-60; 16 µM (inactive) in the assay with HOP-62; 11.2 µM (inactive) in the assay on HT-29. The GI50 in the assay on Hs-578T is 18.8 µM (inactive); in the assay with LOX IMVI, 11.5 µM (inactive); with MDA-MB-435, 9.23 µM (inactive); with MDA-N, 10.9 µM (inactive); in the assay on MOLT-4 it was 12.6 µM (inactive); in the assay with SF-268 it was 12.3 µM (inactive). Also, the GI50 in the assay on SK-MEL-2 is 9.73 µM (inactive); with SK-MEL-5 it was 6.52 µM (inactive); in the assay with SN12C, 15.1 µM (inactive); with SNB-19 it was 17.9 µM (inactive); in the assay with SR, 2.09 µM (inactive); with T47D it was 1.41 µM (inactive).
With `O=c1oc2ncccc2n1Cc1ccc([N+](=O)[O-])cc1`, the GI50 in the assay with BT-549 is 38.1 µM (inactive); in the assay on CCRF-CEM, > 100 µM (inactive); in the assay with DU-145, > 100 µM (inactive); in the assay on HL-60, > 100 µM (inactive); in the assay on HOP-62 it was > 100 µM (inactive); in the assay with HT-29 it was > 100 µM (inactive). The GI50 with Hs-578T, in the assay with LOX IMVI, in the assay with MDA-MB-435, in the assay with MDA-N, in the assay on MOLT-4 and with NCI-H522 was > 100 µM (inactive) throughout. For the same compound, the GI50 in the assay with SF-268, in the assay on SK-MEL-2, in the assay with SK-MEL-5, in the assay with SN12C, with SR and with T47D was > 100 µM (inactive) throughout.
Take `CC(C)(C)OC(=O)N[C@@H](Cc1ccccc1)C(=O)N1CC[C@@H](C(=O)N2[C@H]3CC4CC[C@@]3(CS2(=O)=O)C4(C)C)N1`: the GI50 is 63.5 µM (inactive) in the assay on BT-549; 51.3 µM (inactive) in the assay on CCRF-CEM; 79.6 µM (inactive) in the assay with DU-145; 75.5 µM (inactive) in the assay with HL-60; 78.3 µM (inactive) in the assay with HOP-62; 97.3 µM (inactive) in the assay on HT-29. Besides, the GI50 is 46.8 µM (inactive) with Hs-578T; 75.9 µM (inactive) in the assay on LOX IMVI; 51.9 µM (inactive) in the assay on MDA-MB-435; 39.3 µM (inactive) in the assay with MDA-N; > 100 µM (inactive) in the assay on MOLT-4; > 100 µM (inactive) in the assay with SF-268. The GI50 with SK-MEL-2 is 61.7 µM (inactive); in the assay on SK-MEL-5, 24.6 µM (inactive); in the assay with SN12C, 59 µM (inactive); in the assay on SNB-19 it was 93.8 µM (inactive); in the assay with SR, > 100 µM (inactive); in the assay on T47D, 0.752 µM (active).
Consider `CCSC12OC3(CCCCCN3C1=O)C1C(=O)N(c3ccccc3)C(=O)C12` (stereo unspecified), for which the GI50 in the assay on BT-549, in the assay on CCRF-CEM, in the assay on DU-145, in the assay on HL-60, with HT-29 and with Hs-578T was > 100 µM (inactive) in each case. In addition, the GI50 in the assay with LOX IMVI, in the assay on MDA-MB-435, in the assay on MDA-N, in the assay with MOLT-4, in the assay on NCI-H522 and with SF-268 was > 100 µM (inactive) throughout. For the same compound, the GI50 with SK-MEL-2, in the assay on SK-MEL-5, in the assay with SN12C, with SNB-19, in the assay on SR and with T47D was > 100 µM (inactive) each time.
Consider `CCN(CC)C(=S)SNCc1ccc(S(N)(=O)=O)cc1`, for which the GI50 in the assay with BT-549 was 18.5 µM (inactive); with DU-145, 15.5 µM (inactive); in the assay on HL-60, 4.54 µM (inactive); with HOP-62 it was 15.4 µM (inactive); with HT-29, 8.47 µM (inactive); with Hs-578T, 19.8 µM (inactive). Further, the GI50 is 13.5 µM (inactive) in the assay on LOX IMVI; 19.5 µM (inactive) in the assay on MDA-MB-435; 15.6 µM (inactive) in the assay with MDA-N; 8.97 µM (inactive) in the assay with MOLT-4; 0.0191 µM (active) in the assay with NCI-H522; 12.9 µM (inactive) in the assay on SF-268. Further, the GI50 in the assay on SK-MEL-2 is 16.6 µM (inactive); in the assay on SK-MEL-5, 13.5 µM (inactive); with SN12C, 15.5 µM (inactive); with SNB-19 it was 16 µM (inactive); in the assay on SR, 1.28 µM (inactive); with T47D, 16.4 µM (inactive).
As for `NC(=O)C[C@H](NC(=O)C1(NC(=O)[C@H](Cc2ccc(CP(=O)(O)O)cc2)NC(=O)C(=O)O)CCCCC1)C(=O)NCCCc1cccc2ccccc12`, the GI50 with BT-549 is > 10 µM (inactive); in the assay with CCRF-CEM, 8.28 µM (inactive); with DU-145, > 10 µM (inactive); with HL-60 it was > 10 µM (inactive); in the assay with HOP-62 it was > 10 µM (inactive); in the assay on HT-29 it was > 10 µM (inactive). Also, the GI50 in the assay with Hs-578T, in the assay on LOX IMVI, in the assay on MDA-MB-435, in the assay on MDA-N, with MOLT-4 and with NCI-H522 was > 10 µM (inactive) each time. Also, the GI50 in the assay on SF-268 is > 10 µM (inactive); with SK-MEL-2, > 10 µM (inactive); with SK-MEL-5, > 10 µM (inactive); with SN12C, > 10 µM (inactive); with SNB-19, > 10 µM (inactive); in the assay on SR, 1.82 µM (inactive). The GI50 with T47D was > 10 µM (inactive).

The values are drawn from ChEMBL document CHEMBL1201862, “PubChem BioAssay data set” (2004).
